{"source": "patent US20200303198A1", "about": "“POLISHING COMPOSITION AND POLISHING METHOD” (FUJIMI INCORPORATED, priority 2019, published 2020)", "assay": "Solubility of biocide in water", "type": "physicochemical", "conditions": "in words", "data": [{"smiles": "O=C(OCc1ccccc1)c1ccc(O)cc1", "note": "[benzyl paraoxybenzoate]", "values": [{"measurement": "solubility in water", "value": "poor solubility in water"}]}]}
